Results reported in patent US20120028970A1, “HETEROARYLTHIOMETHYL PYRIDINE DERIVATIVE” (MSD K.K., priority 2009, published 2012).

Legend:
human NPY Y1 receptor = biological target: T1, human NPY Y1 receptor (Homo sapiens, UniProt P25929); assay: NPY binding inhibition test ([125I] peptide YY binding to membranes of NPY Y1 receptor expressing CHO-K1 cells); conditions: membrane of CHO-K1 cells expressing human NPY Y1 receptor, 25° C., 2 hours; read-out: IC50 against specific [125I] peptide YY binding
T1 construct: expressed in transfected cells; host or cells: CHO-K1 NFAT β-Lactamase (Aurora)
T1 sequence (P25929 1-384): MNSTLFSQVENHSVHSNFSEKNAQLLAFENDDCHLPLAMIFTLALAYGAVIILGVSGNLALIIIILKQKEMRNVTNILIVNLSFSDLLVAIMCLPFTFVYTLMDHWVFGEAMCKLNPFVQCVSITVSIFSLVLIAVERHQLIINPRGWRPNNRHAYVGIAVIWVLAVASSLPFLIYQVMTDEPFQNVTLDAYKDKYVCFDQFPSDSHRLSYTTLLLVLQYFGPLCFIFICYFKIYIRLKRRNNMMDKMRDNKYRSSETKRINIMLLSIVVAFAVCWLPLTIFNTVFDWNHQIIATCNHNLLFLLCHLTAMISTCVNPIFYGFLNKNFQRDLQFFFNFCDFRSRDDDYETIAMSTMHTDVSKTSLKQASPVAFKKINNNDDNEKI
Source text: A cDNA sequence encoding a human NPY Y1 receptor (Accession No. L07615) was cloned into expression vectors pEF1x (made by Invitrogen Inc.).

human P-glycoprotein = biological target: T2, human P-glycoprotein (Homo sapiens, UniProt P08183); assay: Assay on P-glycoprotein substrate specificity (transcellular transport, LLC-PK1 cells expressing human P-glycoprotein); assay type: in vitro ADME; conditions: for efflux ratio at 3 h, 1 μM: pH 7.4, 1 μM test compound, human P-gp expressing LLC-PK1 cells, read-out: BA/AB (ratio of permeability coefficients Papp B to A / A to B)
T2 construct: host or cells: porcine kidney-derived LLC-PK1 cells
T2 sequence (P08183 whole entry): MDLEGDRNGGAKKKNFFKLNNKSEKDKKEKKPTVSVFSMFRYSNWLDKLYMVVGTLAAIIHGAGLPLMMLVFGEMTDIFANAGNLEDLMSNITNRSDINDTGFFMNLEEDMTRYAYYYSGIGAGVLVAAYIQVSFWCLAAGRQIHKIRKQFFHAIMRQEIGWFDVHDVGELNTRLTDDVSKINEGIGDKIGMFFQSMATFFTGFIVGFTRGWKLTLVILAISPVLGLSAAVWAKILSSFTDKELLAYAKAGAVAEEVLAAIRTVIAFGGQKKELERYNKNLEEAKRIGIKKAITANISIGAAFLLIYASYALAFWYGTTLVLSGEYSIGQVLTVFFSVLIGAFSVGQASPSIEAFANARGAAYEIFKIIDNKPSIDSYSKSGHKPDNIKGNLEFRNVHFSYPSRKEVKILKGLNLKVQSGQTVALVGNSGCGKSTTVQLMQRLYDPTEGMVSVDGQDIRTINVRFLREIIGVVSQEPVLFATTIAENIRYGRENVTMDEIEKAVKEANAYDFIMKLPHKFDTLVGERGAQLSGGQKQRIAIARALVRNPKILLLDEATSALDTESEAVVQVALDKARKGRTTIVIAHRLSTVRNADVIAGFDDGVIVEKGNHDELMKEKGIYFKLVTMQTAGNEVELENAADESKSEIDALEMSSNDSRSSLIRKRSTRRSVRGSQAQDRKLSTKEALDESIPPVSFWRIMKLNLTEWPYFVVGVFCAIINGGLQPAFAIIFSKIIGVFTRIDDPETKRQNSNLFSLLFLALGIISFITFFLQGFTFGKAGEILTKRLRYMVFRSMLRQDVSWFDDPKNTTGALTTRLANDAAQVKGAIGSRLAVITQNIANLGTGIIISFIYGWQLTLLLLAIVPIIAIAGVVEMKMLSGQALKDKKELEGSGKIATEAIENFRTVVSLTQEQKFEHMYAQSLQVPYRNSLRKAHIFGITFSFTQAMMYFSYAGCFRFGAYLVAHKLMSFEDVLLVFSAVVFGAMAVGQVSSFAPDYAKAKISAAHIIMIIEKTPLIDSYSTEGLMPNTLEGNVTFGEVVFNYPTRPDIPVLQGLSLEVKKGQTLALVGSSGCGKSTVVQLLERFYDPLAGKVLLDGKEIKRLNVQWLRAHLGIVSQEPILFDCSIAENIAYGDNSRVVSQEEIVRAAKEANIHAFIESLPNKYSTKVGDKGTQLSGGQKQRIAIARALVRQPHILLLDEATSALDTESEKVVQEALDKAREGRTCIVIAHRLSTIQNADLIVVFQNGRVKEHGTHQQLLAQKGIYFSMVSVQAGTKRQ
Method: P-glycoprotein (P-gp) substrate specificities were assessed in a transcellular transport assay system using cells expressing human P-glycoprotein. The human P-glycoprotein expression cells employing porcine kidney-derived LLC-PK1 cells as host cells were obtained from Dr. Alfred Schinkel in the Netherlands Cancer Institute [see Journal of Clinical Investigation, vol. 96, p. […] The cells were seeded on a filter membrane of 24-well HTS multiwell insert system (manufactured by Beckton Dickinson) to have a concentration of 0.15 million cells/well. The cells were cultured for about 1 week to form a single layer film by the cells. The multiwell insert system is divided into two compartments (the apical membrane side compartment and the basolateral membrane side compartment). Prior to the transport experiment, cell culture media on both sides (apical and basolateral sides) were replaced by Hank's balanced salt solution (HBSS) containing an assay buffer solution (10 mM Hepes (pH 7.4)). After about 1 hour, the basolateral and apical solutions were replaced by an assay buffer solution (0.5 mL) and a 1 μM test compound-containing assay buffer solution (0.5 mL), respectively, and the transport experiment was started for transportation from Apical to Basolateral (from A to B). After 3 hours, each 50 μL was collected as a measuring sample from both of the apical and basolateral sides. The reverse operation thereof was carried out for transportation from Basolateral to Apical (from B to A). […] After termination of the transport experiment, an equal amount of acetonitrile containing the internal standard was added to each measuring sample. The measuring samples were measured using LC-MS/MS to calculate the concentrations of the test compounds by a relative calibration curve method. The permeability coefficients of the test compounds transported in each of from A to B and from B to A were calculated (Papp: Expression 1). The ratios of the permeability coefficients between A to B and B to A were also determined (BA/AB: Expression 2). BA/AB was considered to be an index of P-glycoprotein (p-gp) substrate specificity [see Drug Metabolism and Disposition, vol. 31, p.
Papp=(0.5 mL×CR)/((CD+CR)×3 hr×Area) Expression 1
BA/AB=Papp(B to A)/Paap(A to B) Expression 2
Area: surface area of filter; CD: concentration of test compound in donor side after 3 hours; CR: concentration of test compound in receiver side after 3 hours

Row | Compound | IC50 (human NPY Y1 receptor) | efflux ratio at 3 h, 1 μM (human P-glycoprotein) | human P-glycoprotein substrate specificity (in words) (human P-glycoprotein)
1 | C=CCOC(=O)Nc1cccc(CNc2cc(C3CCOCC3)cc(CSc3nnc(CC)s3)n2)c1 [Compound (A), reference compound] | 0.33 nM | 5 | –
2 | Cc1nc(SCc2cc(N3CCSCC3)cc(NCc3cccc(F)n3)n2)oc1C [Example 1, 6-{[(4,5-dimethyl-1,3-oxazol-2-yl)sulfanyl]methyl}-N-[(6-fluoropyridin-2-yl)methyl]-4-(thiomorpholin-4-yl)pyridin-2-amine] | 0.27 nM | 1.9 | notably low human P-glycoprotein substrate specificity
3 | Cc1cccc(CNc2cc(N3CCSCC3)cc(CSc3nc(C)c(C)s3)n2)n1 [Example 2, 6-{[(4,5-dimethyl-1,3-thiazol-2-yl)sulfanyl]methyl}-N-[(6-methylpyridin-2-yl)methyl]-4-(thiomorpholin-4-yl)pyridin-2-amine] | 0.17 nM | – | –
4 | CCc1sc(SCc2cc(N3CCC(F)CC3)cc(NCc3cccc(C)n3)n2)nc1C [Example 3, 6-{[(5-ethyl-4-methyl-1,3-thiazol-2-yl)sulfanyl]methyl}-4-(4-fluoropiperidin-1-yl)-N-[(6-methylpyridin-2-yl)methyl]pyridin-2-amine] | 0.26 nM | – | –
5 | C=CCNc1cc(N2[C@@H]3CC[C@H]2C[C@H](F)C3)cc(CSc2nc(C)c(CC)s2)n1 [Example 4, 6-{[(5-ethyl-4-methyl-1,3-thiazol-2-yl)sulfanyl]methyl}-4-[(3-exo)-3-fluoro-8-azabicyclo[3,2,1]octo-8-yl]-N-(prop-2-en-1-yl)pyridin-2-amine] | 0.27 nM | – | –
6 | Cc1cccc(CNc2cc(N3C4CCC3CC(F)(F)C4)cc(CSc3cc(C)n(C)n3)n2)n1 [Example 5, 4-(3,3-difluoro-8-azabicyclo[3,2,1]octo-8-yl)-6-{[(1,5-dimethyl-1H-pyrazol-3-yl)sulfanyl]methyl}-N-[(6-methylpyridin-2-yl)methyl]pyridin-2-amine] | 0.24 nM | – | –
7 | C=CCNc1cc(N2CCC(F)(F)CC2)cc(CSc2cc(CC)n(C)n2)n1 [Example 6, 4-(4,4-difluoropiperidin-1-yl)-6-{[(5-ethyl-1-methyl-1H-pyrazol-3-yl)sulfanyl]methyl}-N-(prop-2-en-1-yl)pyridin-2-amine] | 0.28 nM | – | –
8 | CCCCNc1cc(N2CCC(F)(F)CC2)cc(CSc2nn(C)c(CC)c2C)n1 [Example 7, N-butyl-4-(4,4-difluoropiperidin-1-yl)-6-{[(5-ethyl-1,4-dimethyl-1H-pyrazol-3-yl)sulfanyl]methyl}pyridin-2-amine] | 0.27 nM | – | –
9 | CCc1c(C)c(SCc2cc(N3CCC(F)(F)CC3)cc(NCCOC)n2)nn1C [Example 8, 4-(4,4-difluoropiperidin-1-yl)-6-{[(5-ethyl-1,4-dimethyl-1H-pyrazol-3-yl)sulfanyl]methyl}-N-(2-methoxyethyl)pyridin-2-amine] | 0.27 nM | – | –
10 | Cc1cccc(CNc2cc(N3CCOCC3)cc(CSc3nc(CF)c(C)s3)n2)n1 [Example 9, 6-({[4-(fluoromethyl)-5-methyl-1,3-thiazol-2-yl]sulfanyl}methyl)-N-[(6-methylpyridin-2-yl)methyl]-4-(morpholin-4-yl)pyridin-2-amine] | 0.2 nM | 1.8 | notably low human P-glycoprotein substrate specificity
11 | CCc1sc(SCc2cc(N3CCOCC3)cc(NCc3cccc(C)n3)n2)nc1CF [Example 10, 6-({[5-ethyl-4-(fluoromethyl)-1,3-thiazol-2-yl]sulfanyl}methyl)-N-[(6-methylpyridin-2-yl)methyl]-4-(morpholin-4-yl)pyridin-2-amine] | 0.13 nM | – | –
12 | Cc1cccc(CNc2cc(N3CCOCC3)cc(CSc3nc(CF)c(C4CC4)s3)n2)n1 [Example 11, 6-({[5-cyclopropyl-4-(fluoromethyl)-1,3-thiazol-2-yl]sulfanyl}methyl)-N-[(6-methylpyridin-2-yl)methyl]-4-(morpholin-4-yl)pyridin-2-amine] | 0.19 nM | – | –
